Laboratory results reported in US9067871B2, “Aminotetraline derivatives, pharmaceutical compositions containing them, and their use in therapy” (ABBVIE DEUTSCHLAND GMBH & CO KG, priority 2009, dated 2015).
Counter-ions that a name gives are not always drawn.

Legend:
[1] = molecular target: human GlyT1c (Homo sapiens (Human), UniProt P48067); assay: [3H]-Glycine uptake into recombinant CHO cells expressing human GlyT1; format: cell-based; settings: hGlyT1c_5_CHO cells, 200 nM [3H]-glycine
Procedure: 1. [^3H]-Glycine uptake into recombinant CHO cells expressing human GlyT1: Human GlyT1c expressing recombinant hGlyT1c—5_CHO cells were plated at 20,000 cells per well in 96 well Cytostar-T scintillation microplates (Amersham Biosciences) and cultured to sub-confluency for 24 h. […] 80 μl HBSS buffer were added, followed by 10 μl inhibitor or vehicle (10% DMSO) and 10 μl [^3H]-glycine (TRK71, Amersham Biosciences) to a final concentration of 200 nM for initiation of glycine uptake. The plates were placed in a Wallac Microbeta (PerkinElmer) and continuously counted by solid phase scintillation spectrometry during up to 3 hours. Nonspecific uptake was determined in the presence of 10 μM Org24598.

[2] = molecular target: human GlyT1c transporter (Homo sapiens (Human), UniProt P48067); assay: Radioligand binding assay using recombinant CHO cell membranes expressing human GlyT1; settings: human GlyT1c-expressing CHO cell membranes; read-out: radioligand binding Kiapp
Description: 2. Radioligand binding assays using recombinant CHO cell membranes expressing human GlyT1: […]

Chain of human GlyT1c transporter (P48067 whole entry): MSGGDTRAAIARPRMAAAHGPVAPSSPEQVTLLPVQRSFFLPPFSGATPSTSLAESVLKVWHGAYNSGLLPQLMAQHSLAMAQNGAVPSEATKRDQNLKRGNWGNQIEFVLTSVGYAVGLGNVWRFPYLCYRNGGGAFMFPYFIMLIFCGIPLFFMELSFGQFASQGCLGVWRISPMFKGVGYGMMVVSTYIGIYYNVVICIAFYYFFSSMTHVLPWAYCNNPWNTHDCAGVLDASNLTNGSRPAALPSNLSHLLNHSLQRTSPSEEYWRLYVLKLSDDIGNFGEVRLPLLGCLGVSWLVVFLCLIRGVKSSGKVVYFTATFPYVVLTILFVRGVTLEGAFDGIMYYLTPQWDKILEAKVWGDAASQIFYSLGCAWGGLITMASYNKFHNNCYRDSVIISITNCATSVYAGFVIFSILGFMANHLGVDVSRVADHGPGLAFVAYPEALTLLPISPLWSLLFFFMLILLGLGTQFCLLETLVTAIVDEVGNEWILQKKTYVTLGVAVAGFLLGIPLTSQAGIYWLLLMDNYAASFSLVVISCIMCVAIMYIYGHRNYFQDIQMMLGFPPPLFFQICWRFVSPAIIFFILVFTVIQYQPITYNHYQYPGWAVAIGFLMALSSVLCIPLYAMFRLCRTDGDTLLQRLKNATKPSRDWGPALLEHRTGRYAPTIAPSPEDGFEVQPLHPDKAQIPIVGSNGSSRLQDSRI
Chain of human GlyT1c (P48067 whole entry): as above

Row | SMILES | IC50 [1] | Ki [2]
1 | Cn1cc(S(=O)(=O)NCCOc2ccc3c(c2)C(Cc2ccc(Cl)cc2)C(N)CC3)cn1 (centres unmarked) [Example 28, 1-Methyl-1H-pyrazole-4-sulfonic acid {2-[7-amino-8-(4-chloro-benzyl)-5,6,7,8-tetrahydronaphthalen-2-yloxy]-ethyl}-amide hydrochloride] | ≤ 0.01 µM | ≤ 0.01 µM
2 | N#Cc1ccc2c(c1)C(Cc1ccc(Cl)c(Cl)c1)C(N)CC2 (centres unmarked) [Example 29, 7-Amino-8-(3,4-dichlorobenzyl)-5,6,7,8-tetrahydronaphthalene-2-carbonitrile trifluoroacetate] | ≤ 100 µM | ≤ 10 µM
3 | N#Cc1ccc2c(c1)C(Cc1ccc(Cl)cc1)C(N)CC2 (centres unmarked) [Example 30, 7-Amino-8-(4-chlorobenzyl)-5,6,7,8-tetrahydronaphthalene-2-carbonitrile hydrochloride] | ≤ 100 µM | ≤ 100 µM
4 | CCOC(=O)NC1CCc2ccc(C#N)cc2C1Cc1ccc(Cl)c(Cl)c1 (centres unmarked) [Example 32, Ethyl [7-cyano-1-(3,4-dichlorobenzyl)-1,2,3,4-tetrahydronaphthalen-2-yl]carbamate] | ≤ 100 µM | ≤ 10 µM
5 | NC1CCc2ccc(OCCN3CCCS3(=O)=O)cc2C1Cc1cccc(Cl)c1 (centres unmarked) [Example 33, 1-(3-chlorobenzyl)-7-[2-(1,1-dioxidoisothiazolidin-2-yl)ethoxy]-1,2,3,4-tetrahydronaphthalen-2-amine hydrochloride] | ≤ 1 µM | ≤ 1 µM
6 | CC(C)(C)OC(=O)NC1CCc2ccc(C#N)cc2C1Cc1ccc(Cl)c(Cl)c1 (centres unmarked) [Example 34, tert-Butyl[7-cyano-1-(3,4-dichlorobenzyl)-1,2,3,4-tetrahydronaphthalen-2-yl]carbamate] | ≤ 1000 µM | ≤ 10 µM
7 | NC1CCc2ccc(O)cc2C1Cc1ccc(Cl)c(Cl)c1 (centres unmarked) [Example 35, 7-Amino-8-(3,4-dichlorobenzyl)-5,6,7,8-tetrahydronaphthalen-2-ol trifluoroacetate (salt)] | ≤ 100 µM | ≥ 100 µM
8 | NC1CCc2ccc(OC(F)F)cc2C1Cc1ccc(Cl)cc1 (centres unmarked) [Example 36, 1-(4-chlorobenzyl)-7-(difluoromethoxy)-1,2,3,4-tetrahydronaphthalen-2-amine hydrochloride] | ≤ 10 µM | ≤ 100 µM
9 | O=C(NC1CCc2ccc(O)cc2C1Cc1ccc(Cl)cc1)OCc1ccccc1 (centres unmarked) [Example 37, Benzyl [1-(4-chlorobenzyl)-7-hydroxy-1,2,3,4-tetrahydronaphthalen-2-yl]carbamate] | ≤ 100 µM | ≤ 10 µM
10 | CC(C)(C)OC(=O)NC1CCc2ccc(CN)cc2C1Cc1ccc(Cl)c(Cl)c1 (centres unmarked) [Example 38, tert-Butyl[7-(aminomethyl)-1-(3,4-dichlorobenzyl)-1,2,3,4-tetrahydronaphthalen-2-yl]carbamate] | ≤ 100 µM | ≤ 100 µM
11 | CCCS(=O)(=O)NCc1ccc2c(c1)C(Cc1ccc(Cl)c(Cl)c1)C(NC(=O)OC(C)(C)C)CC2 (centres unmarked) [Example 39, tert-Butyl[1-(3,4-dichlorobenzyl)-7-{[(propylsulfonyl)amino]methyl}-1,2,3,4-tetrahydronaphthalen-2-yl]carbamate] | ≤ 1000 µM | ≤ 10 µM
12 | NC1CCc2ccc(CNS(=O)(=O)CCCF)cc2C1Cc1ccc(Cl)c(Cl)c1 (centres unmarked) [Example 41, N-{[7-Amino-8-(3,4-dichlorobenzyl)-5,6,7,8-tetrahydronaphthalen-2-yl]methyl}-3-fluoropropane-1-sulfonamide hydrochloride] | ≤ 100 µM | ≤ 10 µM
13 | CCOC(=O)NC1CCc2ccc(OCCNS(=O)(=O)c3cnn(C)c3)cc2C1Cc1cccc(Cl)c1 (centres unmarked) [Example 46, {1-(3-Chloro-benzyl)-7-[2-(1-methyl-1H-pyrazole-4-sulfonylamino)-ethoxy]-1,2,3,4-tetrahydro-naphthalen-2-yl}-carbamic acid ethyl ester] | ≤ 1 µM | ≤ 1 µM
